Laboratory results published in the supplement of paper PMC10307832.

Key:
Test in all cases: relative viability (nuclei count vs DMSO), 5 days (fraction); higher = more cells survive
[1] = compound: COC1=CC=C(C=C1)CN2C=CC3=C2C=C(C=C3)C(=O)NO + COc1cc2c(Oc3ccc(NC(=O)C4(C(=O)Nc5ccc(F)cc5)CC4)cc3F)ccnc2cc1OCCCN1CCOCC1 [Foretinib] (partner 0.25 µM)
In short: (§1)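 A single step with final 0.05% Triton X-100, 1% formaldehyde and 1 ug/ml Hoechst fixed the cells and stained nuclei 5 days after treatment. Lung cancer cell lines in 1536-well plates had been treated by pin tool the day after seeding with one drug alone or a fixed anchor-drug dose plus five library-drug doses (not always all listed) in √10 steps, and nuclei were counted on 4× images. Relative viability is the ratio of nuclei in treated wells to nuclei in vehicle wells, taken as the median of duplicate plates.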

[2] = compound: COC1=CC=C(C=C1)CN2C=CC3=C2C=C(C=C3)C(=O)NO + CC(=O)Nc1cccc(-n2c(=O)n(C3CC3)c(=O)c3c(Nc4ccc(I)cc4F)n(C)c(=O)c(C)c32)c1 [Trametinib] (partner 0.02 µM)
In short: as §1

[3] = compound: COC1=CC=C(C=C1)CN2C=CC3=C2C=C(C=C3)C(=O)NO + Cc1cc(Nc2cc(N3CCN(C)CC3)nc(Sc3ccc(NC(=O)C4CC4)cc3)n2)n[nH]1 [Tozasertib] (partner 0.1 µM)
In short: as §1

[4] = compound: COC1=CC=C(C=C1)CN2C=CC3=C2C=C(C=C3)C(=O)NO + CC1(C)CCC(c2ccc(Cl)cc2)=C(CN2CCN(c3ccc(C(=O)NS(=O)(=O)c4ccc(N[C@H](CCN5CCOCC5)CSc5ccccc5)c(S(=O)(=O)C(F)(F)F)c4)cc3)CC2)C1 [Navitoclax] (partner 0.5 µM)
In short: as §1

SW 1573
relative viability ([1]; first compound 0.253 µM): 0.877 | relative viability ([1]; first compound 0.8 µM): 0.865 | relative viability ([1]; first compound 2.53 µM): 0.751 | relative viability ([1]; first compound 8 µM): 0.694 | relative viability ([2]; first compound 0.253 µM): 0.539 | relative viability ([2]; first compound 0.8 µM): 0.678 | relative viability ([2]; first compound 2.53 µM): 0.562 | relative viability ([2]; first compound 8 µM): 0.37 | relative viability ([3]; first compound 0.253 µM): 0.233 | relative viability ([3]; first compound 0.8 µM): 0.188 | relative viability ([3]; first compound 2.53 µM): 0.206 | relative viability ([3]; first compound 8 µM): 0.157 | relative viability ([4]; first compound 0.253 µM): 0.943 | relative viability ([4]; first compound 0.8 µM): 1.19 | relative viability ([4]; first compound 2.53 µM): 0.961 | relative viability ([4]; first compound 8 µM): 0.946
